These results are taken from patent US12421249B2, “Inhibitors of APOL1 and methods of using same” (Vertex Pharmaceuticals Incorporated, priority 2020, dated 2025).

The target in the experiment is T1, APOL1 (Homo sapiens, UniProt O14791).
T1 sequence (O14791 1-398 S342G/I384M): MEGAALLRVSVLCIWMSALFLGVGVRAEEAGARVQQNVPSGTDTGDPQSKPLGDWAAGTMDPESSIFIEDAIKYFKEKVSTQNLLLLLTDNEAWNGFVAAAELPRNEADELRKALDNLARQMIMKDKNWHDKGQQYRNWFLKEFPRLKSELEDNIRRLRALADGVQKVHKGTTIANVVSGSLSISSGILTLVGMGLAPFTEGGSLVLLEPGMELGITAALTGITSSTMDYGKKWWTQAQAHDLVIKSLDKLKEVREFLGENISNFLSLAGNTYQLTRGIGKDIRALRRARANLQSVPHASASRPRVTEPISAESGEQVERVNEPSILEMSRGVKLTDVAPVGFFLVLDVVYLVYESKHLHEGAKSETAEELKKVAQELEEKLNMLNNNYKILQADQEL
In words: Multi-Tox Assay (MultiTox-Fluor Multiplex Cytotoxicity Assay in tet-inducible APOL1 T-REx-HEK293 cells; Table 46 does not say which APOL1 variant G0/G1/G2). Format: cell-based. To be noted: APOL1 variant not given; for IC50: IP50 = IC50 for cell proliferation.

The term IC50 denotes the point on the concentration scale where inhibition reaches its midpoint. Lower therefore signals greater potency. Broadly, the IC90 is the concentration needed for an effect of 90%. Low values mean greater potency, high ones weaker potency.

Take `C[C@H]1C[C@@]2(C[C@@H](c3cn(CCc4ccncn4)nn3)N1)OCC(F)(F)c1cc(Cl)sc12` [Compound 305]: the “Multi-Tox Assay Max Activity (%)” value is reported as 100.0% and the 50% inhibitory concentration (IC50) is under 50 nM.

Regarding `CC(CO)CCn1cc([C@@H]2C[C@]3(C[C@H](C)N2)OCC(F)(F)c2cc(Cl)sc23)nn1` (stereo partly shown) [Compound 306], the “Multi-Tox Assay Max Activity (%)” value stood at 99.0% and the IC50 was over 500 nM.

`C[C@H]1C[C@@]2(C[C@@H](c3cn(CC4CCS(=O)(=O)C4)nn3)N1)OCC(F)(F)c1cc(Cl)sc12` (stereo partly shown) [Compound 307]: the “Multi-Tox Assay Max Activity (%)” value amounted to 99.0% and the 50% inhibitory concentration (IC50) was under 50 nM.

`C[C@H]1C[C@@]2(C[C@@H](c3cn(Cc4ccc(OC5CCOCC5)cc4)nn3)N1)OCC(F)(F)c1cc(Cl)sc12` [Compound 308]: the “Multi-Tox Assay Max Activity (%)” value is recorded as 95.0% and the IC50 lay within 50 to 500 nM.

With `C[C@H]1C[C@@]2(C[C@@H](c3cn(CC4CCOCC4)nn3)N1)OCC(F)(F)c1cc(Cl)sc12` [Compound 309], the “Multi-Tox Assay Max Activity (%)” value is on record as 97.0% and the IC50 was 50 to 500 nM.

As to `C[C@H]1C[C@@]2(C[C@@H](c3cn(Cc4cccc5c4OCCO5)nn3)N1)OCC(F)(F)c1cc(Cl)sc12` [Compound 310], the “Multi-Tox Assay Max Activity (%)” value turned out to be 94.0% and the IC50 was 50 to 500 nM.

With `C[C@H]1C[C@@]2(C[C@@H](c3cn(CC4CCOC4)nn3)N1)OCC(F)(F)c1cc(Cl)sc12` (stereo partly shown) [Compound 311], the “Multi-Tox Assay Max Activity (%)” value turned out to be 99.0% and the IC50 was under 50 nM.

Turning to `COCC1(Cn2cc([C@@H]3C[C@]4(C[C@H](C)N3)OCC(F)(F)c3cc(Cl)sc34)nn2)CC1` [Compound 312], the IC90 is over 500 nM, the “Multi-Tox Assay Max Activity (%)” value is listed as 91.0% and the IC50 is over 500 nM.

Take `C[C@H]1C[C@@]2(C[C@@H](c3cn(Cc4cccc(CO)c4)nn3)N1)OCC(F)(F)c1cc(Cl)sc12` [Compound 313]: the “Multi-Tox Assay Max Activity (%)” value turned out to be 98.0% and the half-inhibitory concentration (IC50) was in the range of 50 to 500 nM.

As for `C[C@H]1C[C@@]2(C[C@@H](c3cn(CCC4CCCOC4)nn3)N1)OCC(F)(F)c1cc(Cl)sc12` (stereo partly shown) [Compound 314], the “Multi-Tox Assay Max Activity (%)” value is 99.0% and the IC50 is under 50 nM.

For the compound `Cc1ccnn1CCn1cc([C@@H]2C[C@]3(C[C@H](C)N2)OCC(F)(F)c2cc(Cl)sc23)nn1` [Compound 315], the “Multi-Tox Assay Max Activity (%)” value was 98.0% and the IC50 is 50 to 500 nM.

For `C[C@H]1C[C@@]2(C[C@@H](c3cn(Cc4ccc(O)nc4)nn3)N1)OCC(F)(F)c1cc(Cl)sc12` [Compound 316], the “Multi-Tox Assay Max Activity (%)” value is 95.0% and the IC50 was in the range of 50 to 500 nM.

As to `C[C@H]1C[C@@]2(C[C@@H](c3cn(Cc4cnccn4)nn3)N1)OCC(F)(F)c1cc(Cl)sc12` [Compound 317], the “Multi-Tox Assay Max Activity (%)” value is 98.0% and the IC50 was 50 to 500 nM.

For `Cc1ncc(Cn2cc([C@@H]3C[C@]4(C[C@H](C)N3)OCC(F)(F)c3cc(Cl)sc34)nn2)cn1` [Compound 318], the “Multi-Tox Assay Max Activity (%)” value was found to be 99.0% and the 50% inhibitory concentration (IC50) was under 50 nM.

For the compound `COc1cccc(Cn2cc([C@@H]3C[C@]4(C[C@H](C)N3)OCC(F)(F)c3cc(Cl)sc34)nn2)c1` [Compound 319], the “Multi-Tox Assay Max Activity (%)” value turned out to be 95.0% and the half-maximal inhibitory concentration (IC50) lay within 50 to 500 nM.

Turning to `C[C@H]1C[C@@]2(C[C@@H](c3cn(Cc4cccc(O)c4)nn3)N1)OCC(F)(F)c1cc(Cl)sc12` [Compound 320], the “Multi-Tox Assay Max Activity (%)” value is 95.0% and the IC50 fell in the range of 50 to 500 nM.

Consider `C[C@H]1C[C@@]2(C[C@@H](c3cn(Cc4cccnn4)nn3)N1)OCC(F)(F)c1cc(Cl)sc12` [Compound 321], for which the “Multi-Tox Assay Max Activity (%)” value is reported as 99.0% and the IC50 was under 50 nM.

As to `C[C@H]1C[C@@]2(C[C@@H](c3cn(CC(O)c4ccccc4)nn3)N1)OCC(F)(F)c1cc(Cl)sc12` (stereo partly shown) [Compound 322], the “Multi-Tox Assay Max Activity (%)” value stood at 97.0% and the IC50 fell in the range of 50 to 500 nM.

Regarding `COCCn1cc([C@@H]2C[C@]3(C[C@H](C)N2)OCC(F)(F)c2cc(Cl)sc23)nn1` [Compound 323], the “Multi-Tox Assay Max Activity (%)” value was found to be 100.0% and the IC50 is under 50 nM.

For `C[C@H]1C[C@@]2(C[C@@H](c3cn(CC(F)F)nn3)N1)OCC(F)(F)c1cc(Cl)sc12` [Compound 324], the “Multi-Tox Assay Max Activity (%)” value amounted to 96.0% and the IC50 was 50 to 500 nM.

With `CCC(O)Cn1cc([C@@H]2C[C@]3(C[C@H](C)N2)OCC(F)(F)c2cc(Cl)sc23)nn1` (stereo partly shown) [Compound 325], the “Multi-Tox Assay Max Activity (%)” value turned out to be 98.0% and the IC50 was under 50 nM.

Regarding `Cc1c(Cn2cc([C@@H]3C[C@]4(C[C@H](C)N3)OCC(F)(F)c3cc(Cl)sc34)nn2)cnn1C` [Compound 326], the “Multi-Tox Assay Max Activity (%)” value is 97.0% and the IC50 was in the range of 50 to 500 nM.

On to `CC(C)N1CC(Cn2cc([C@@H]3C[C@]4(C[C@H](C)N3)OCC(F)(F)c3cc(Cl)sc34)nn2)CC1=O` (stereo partly shown) [Compound 327], for which the “Multi-Tox Assay Max Activity (%)” value stood at 98.0% and the half-maximal inhibitory concentration (IC50) is under 50 nM.

On to `C[C@H]1C[C@@]2(C[C@@H](c3cn(CCC(N)=O)nn3)N1)OCC(F)(F)c1cc(Cl)sc12` [Compound 328], for which the “Multi-Tox Assay Max Activity (%)” value turned out to be 100.0% and the IC50 was under 50 nM.

`C[C@H]1C[C@@]2(C[C@@H](c3cn(CC4(F)CCOCC4)nn3)N1)OCC(F)(F)c1cc(Cl)sc12` [Compound 329] had an IC50 of over 500 nM.

Consider `CCn1cc(Cn2cc([C@@H]3C[C@]4(C[C@H](C)N3)OCC(F)(F)c3cc(Cl)sc34)nn2)cn1` [Compound 330], for which the “Multi-Tox Assay Max Activity (%)” value is 99.0% and the IC50 is under 50 nM.

In the case of `C[C@H]1C[C@@]2(C[C@@H](c3cn(Cc4cocn4)nn3)N1)OCC(F)(F)c1cc(Cl)sc12` [Compound 331], the “Multi-Tox Assay Max Activity (%)” value is given as 98.0% and the IC50 is under 50 nM.

With `C[C@H]1C[C@@]2(C[C@@H](c3cn(Cc4ccccn4)nn3)N1)OCC(F)(F)c1cc(Cl)sc12` [Compound 332], the “Multi-Tox Assay Max Activity (%)” value was 96.0% and the IC50 lay within 50 to 500 nM.

Regarding `COc1cc(F)cc(Cn2cc([C@@H]3C[C@]4(C[C@H](C)N3)OCC(F)(F)c3cc(Cl)sc34)nn2)c1` [Compound 333], the “Multi-Tox Assay Max Activity (%)” value amounted to 97.0% and the IC50 lay in the range of 50 to 500 nM.

Regarding `Cc1ccc(Cn2cc([C@@H]3C[C@]4(C[C@H](C)N3)OCC(F)(F)c3cc(Cl)sc34)nn2)nc1` [Compound 334], the “Multi-Tox Assay Max Activity (%)” value came out at 96.0% and the IC50 was in the range of 50 to 500 nM.

Take `COc1ccc(Cn2cc([C@@H]3C[C@]4(C[C@H](C)N3)OCC(F)(F)c3cc(Cl)sc34)nn2)cc1` [Compound 335]: the “Multi-Tox Assay Max Activity (%)” value is given as 96.0% and the IC50 lay within 50 to 500 nM.

On to `Cc1cc(Cn2cc([C@@H]3C[C@]4(C[C@H](C)N3)OCC(F)(F)c3cc(Cl)sc34)nn2)ccn1` [Compound 336], for which the “Multi-Tox Assay Max Activity (%)” value was 99.0% and the IC50 is under 50 nM.

In the case of `Cc1nc(Cn2cc([C@@H]3C[C@]4(C[C@H](C)N3)OCC(F)(F)c3cc(Cl)sc34)nn2)oc1C` [Compound 337], the “Multi-Tox Assay Max Activity (%)” value came out at 99.0% and the IC50 is under 50 nM.

With `Cc1nnc(Cn2cc([C@@H]3C[C@]4(C[C@H](C)N3)OCC(F)(F)c3cc(Cl)sc34)nn2)[nH]1` [Compound 339], the “Multi-Tox Assay Max Activity (%)” value is 97.0% and the IC50 was 50 to 500 nM.

For `COCCOCCn1cc([C@@H]2C[C@]3(C[C@H](C)N2)OCC(F)(F)c2cc(Cl)sc23)nn1` [Compound 340], the “Multi-Tox Assay Max Activity (%)” value was determined as 98.0% and the IC50 was in the range of 50 to 500 nM.

Regarding `Cc1nccn1CCCn1cc([C@@H]2C[C@]3(C[C@H](C)N2)OCC(F)(F)c2cc(Cl)sc23)nn1` [Compound 341], the “Multi-Tox Assay Max Activity (%)” value amounted to 98.0% and the IC50 lay in the range of 50 to 500 nM.

Consider `COCC(O)Cn1cc([C@@H]2C[C@]3(C[C@H](C)N2)OCC(F)(F)c2cc(Cl)sc23)nn1` (stereo partly shown) [Compound 342], for which the “Multi-Tox Assay Max Activity (%)” value is on record as 98.0% and the IC50 lay in the range of 50 to 500 nM.

As to `C[C@H]1C[C@@]2(C[C@@H](c3cn(CC4CCCCO4)nn3)N1)OCC(F)(F)c1cc(Cl)sc12` (stereo partly shown) [Compound 343], the “Multi-Tox Assay Max Activity (%)” value is recorded as 97.0% and the IC50 lay in the range of 50 to 500 nM.

Consider `C[C@H]1C[C@@]2(C[C@@H](c3cn(CCCS(C)(=O)=O)nn3)N1)OCC(F)(F)c1cc(Cl)sc12` [Compound 344], for which the “Multi-Tox Assay Max Activity (%)” value was found to be 99.0% and the IC50 is under 50 nM.

On to `CC(C)C(=O)NCCn1cc([C@@H]2C[C@]3(C[C@H](C)N2)OCC(F)(F)c2cc(Cl)sc23)nn1` [Compound 345], for which the “Multi-Tox Assay Max Activity (%)” value was determined as 99.0% and the IC50 was under 50 nM.

As for `C[C@H]1C[C@@]2(C[C@@H](c3cn(Cc4nc5ncccc5[nH]4)nn3)N1)OCC(F)(F)c1cc(Cl)sc12` [Compound 346], the “Multi-Tox Assay Max Activity (%)” value came to 99.0% and the IC50 was in the range of 50 to 500 nM.

`C[C@H]1C[C@@]2(C[C@@H](c3cn(Cc4ccccc4S(C)(=O)=O)nn3)N1)OCC(F)(F)c1cc(Cl)sc12` [Compound 347]: the “Multi-Tox Assay Max Activity (%)” value was 96.0% and the IC50 fell in the range of 50 to 500 nM.

For `COc1ccc(C(O)Cn2cc([C@@H]3C[C@]4(C[C@H](C)N3)OCC(F)(F)c3cc(Cl)sc34)nn2)cc1` (stereo partly shown) [Compound 348], the “Multi-Tox Assay Max Activity (%)” value was 97.0% and the IC50 is 50 to 500 nM.

Consider `C[C@H]1C[C@@]2(C[C@@H](c3cn(Cc4n[nH]c5ccccc45)nn3)N1)OCC(F)(F)c1cc(Cl)sc12` [Compound 349], for which the “Multi-Tox Assay Max Activity (%)” value came out at 91.0% and the IC50 was 50 to 500 nM.
